Consider 19 compounds from patent US20210070748A1, “INHIBITORS OF BRUTONS TYROSINE KINASE” (Pharmacyclics LLC, priority 2015, published 2021).

Where two headings read alike, the source gives them in different places.

One test has as its target T1, BTK-WT (Homo sapiens, UniProt Q06187).
T1 construct: purified from insect cells as a full-length construct containing an N-terminal 6X-His tag; His6 (N); made in house; host or cells: insect cells (baculovirus Sf21 in Method B)
Briefly: Btk in vitro inhibitory activity (one of Method A TR-FRET, Method B electrophoretic mobility shift, Method C radiometric filter binding). The format is biochemical. To be noted: read-out: IC50 BTK-WT. The method, then:
Btk kinase activity is determined using a time-resolved fluorescence resonance energy transfer (TR-FRET) methodology. Measurements are performed in a reaction volume of 50 μL using 96-well assay plates. […] The reaction is quenched by the addition of 1.2 equivalents of EDTA (relative to divalent cation) in 25 μL of 1× Lance buffer (Perkin-Elmer). […] The TR-FRET signal is measured on a multimode plate reader with an excitation wavelength (λEx) of 330 nm and detection wavelengths (λEm) of 615 and 665 nm. Activity is determined by the ratio of the fluorescence at 665 nm to that at 615 nm. For each compound, enzyme activity is measured at various concentrations of compound. Negative control reactions are performed in the absence of inhibitor in replicates of six, and two no-enzyme controls are used to determine baseline fluorescence levels. Inhibition constants, Ki(app), were obtained using the program BatchKi(Kuzmic et al. (2000), Anal. Biochem. 286:45-50). IC50s are obtained according to the equation:
IC50={Ki(app)/(1+[ATP]/Km^ATP)}+[E]total/2;
Kinase activity is measured in vitro using electrophoretic mobility shift assay. The kinase reactions are assembled in a total volume of 25 μL in 384 well plates. […] The reaction is incubated for one hour and is quenched by the addition of 45 μL of termination buffer (100 mM HEPES, pH7.5, 0.01% Triton X-100, 30 mM EDTA). The terminated reactions are analyzed using 12 channel LabChip® 3000 microfluidic detection instrument (Caliper Life Sciences). […] Change in the relative fluorescence intensity of the substrate and product peaks is the parameter measured, reflecting enzyme activity. In the presence of an inhibitor, the ratio between product and substrate is altered: the signal of the product decreases, while the signal of the substrate increases.
Activity in each sample is determined as the product to sum ratio (PSR): P/(S+P), where P is the peak height of the product peptide and S is the peak height of the substrate peptide. For each compound, enzyme activity is measured at various concentrations (12 concentrations of compound spaced by 3× dilution intervals). Negative control samples (0%-inhibition in the absence of inhibitor) and positive control samples (100%-inhibition, in the presence of 20 mM EDTA) are assembled in replicates of four and are used to calculate %-inhibition values for each inhibitor at each concentration. Percent inhibition (Pinh) is determined using following equation:
Pinh=(PSR0%-PSRinh)/(PSR0%−PSR100%)*100, where PSRinh is the product sum ratio in the presence of inhibitor, PSR0% is the average product sum ration in the absence of inhibitor and PSR100% is the average product sum ratio in 100%-inhibition control samples;
The IC50 values of inhibitors are determined by 4 parameter sigmoidal dose-response model fitting of the inhibition curves (Pinh versus inhibitor concentration) using XLfit 4 software.
Human Btk kinase (Genbank accession # NP_000052) was purified from insect cells as a full-length construct containing an N-terminal 6X-His tag. Btk kinase activity was determined using a radiometric filter binding assay. Measurements are performed in a low μL reaction volume 384-well assay plates. […] IC50 values and curve fits were obtained using Prism (GraphPad Software).

In another test the target is T2, ITK (Homo sapiens, UniProt Q08881).
T2 sequence (Q08881 1-620): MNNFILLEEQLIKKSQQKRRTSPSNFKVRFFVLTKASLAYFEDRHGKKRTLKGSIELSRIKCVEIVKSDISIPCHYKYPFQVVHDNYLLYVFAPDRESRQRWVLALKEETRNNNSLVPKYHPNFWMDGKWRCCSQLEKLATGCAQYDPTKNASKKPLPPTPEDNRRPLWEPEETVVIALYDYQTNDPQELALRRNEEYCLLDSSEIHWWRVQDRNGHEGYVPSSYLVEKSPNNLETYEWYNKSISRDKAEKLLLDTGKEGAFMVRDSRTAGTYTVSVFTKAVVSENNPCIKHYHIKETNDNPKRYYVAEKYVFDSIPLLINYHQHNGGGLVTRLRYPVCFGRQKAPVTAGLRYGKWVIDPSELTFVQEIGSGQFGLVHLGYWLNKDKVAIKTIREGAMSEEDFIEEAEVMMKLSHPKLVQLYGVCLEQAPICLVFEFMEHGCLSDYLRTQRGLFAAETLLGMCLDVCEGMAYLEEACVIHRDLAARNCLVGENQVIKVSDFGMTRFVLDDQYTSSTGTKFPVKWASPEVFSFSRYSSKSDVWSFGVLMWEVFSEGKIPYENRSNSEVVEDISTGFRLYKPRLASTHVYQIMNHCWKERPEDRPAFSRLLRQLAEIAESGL
Briefly: Inhibition of a panel of kinases, in vitro HotSpot kinase assay: ITK. The test is classed as biochemical. The method, then: The degree of inhibition of a panel of kinases is determined using the in vitro HotSpot kinase assay (purified enzymes, ^33P-ATP, an appropriate substrate and 1 μM ATP).

Where [1] appears, read: Table 15, C compounds, 1 μM ATP.

T1 sequence (Q06187 whole entry): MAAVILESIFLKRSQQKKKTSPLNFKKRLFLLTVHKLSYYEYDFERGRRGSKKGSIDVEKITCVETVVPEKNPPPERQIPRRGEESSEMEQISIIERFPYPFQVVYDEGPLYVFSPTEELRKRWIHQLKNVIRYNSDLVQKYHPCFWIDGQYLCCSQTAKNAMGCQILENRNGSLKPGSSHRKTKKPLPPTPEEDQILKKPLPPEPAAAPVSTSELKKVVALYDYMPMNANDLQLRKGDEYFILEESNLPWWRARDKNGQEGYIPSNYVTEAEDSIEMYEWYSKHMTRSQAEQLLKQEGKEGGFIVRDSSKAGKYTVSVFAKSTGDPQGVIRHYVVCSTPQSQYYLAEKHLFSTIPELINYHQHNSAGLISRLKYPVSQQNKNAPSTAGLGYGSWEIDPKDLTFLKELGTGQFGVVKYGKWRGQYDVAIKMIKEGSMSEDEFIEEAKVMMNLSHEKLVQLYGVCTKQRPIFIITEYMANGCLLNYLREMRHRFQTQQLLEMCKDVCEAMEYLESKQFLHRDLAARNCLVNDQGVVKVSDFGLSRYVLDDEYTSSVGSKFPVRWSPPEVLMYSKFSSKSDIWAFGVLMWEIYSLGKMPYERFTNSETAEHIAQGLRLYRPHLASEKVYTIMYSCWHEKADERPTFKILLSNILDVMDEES

In the case of `C=CC(=O)N1CCC[C@@H](Nc2nnc(C(N)=O)c(Nc3ccc(-c4cnn(C(=O)C=C)c4)cc3)n2)C1` [Example C-74], the IC50 was at most 10 nM at BTK-WT (Table 15, C compounds) and 10 to 100 nM against ITK (setting [1]).
Regarding `CN(c1cnc(C(N)=O)c(Nc2ccc(C3(C)CCN(C4CC4)CC3)cc2)n1)[C@@H]1CCN(C(=O)C(F)(F)F)C1` [Example C-66, (R)-3-(4-(1-cyclopropyl-4-methylpiperidin-4-yl)phenylamino)-5-(methyl(1-(2,2,2-trifluoroacetyl)pyrrolidin-3-yl)amino)pyrazine-2-carboxamide], the IC50 at BTK-WT (Table 15, C compounds) was at most 10 nM; on ITK (setting [1]) it was at most 10 nM.
Take `C=CC(=O)N1CCC[C@H](Nc2nnc(C(N)=O)c(Nc3ccc(-c4ncco4)cc3)n2)C1` [Example C-34, (S)-3-(1-acryloylpiperidin-3-ylamino)-5-(4-(oxazol-2-yl)phenylamino)-1,2,4-triazine-6-carboxamide]: the IC50 is at most 10 nM on BTK-WT (Table 15, C compounds) and 10 to 100 nM at ITK (setting [1]).
With `C=CC(=O)N[C@@H]1CCC[C@@H](Nc2nnc(C(N)=O)c(Nc3ccc(C(C)C)cc3)n2)C1` [Example E-58, 3-((1R,3R)-3-acrylamidocyclohexyl-amino)-5-(4-isopropylphenylamino)-1,2,4-triazine-6-carboxamide], the IC50 is at most 10 nM on BTK-WT (E compounds, Table 17) and 100 to 1000 nM at ITK (E compounds, Table 17).
The like results for `C=CC(=O)N1CCC[C@H](Nc2nnc(C(N)=O)c(Nc3ccc(C(C)(C)C)cc3)n2)C1` [Example E-23, (S)-3-(1-acryloylpiperidin-3-ylamino)-5-(4-tert-butylphenylamino)-1,2,4-triazine-6-carboxamide] were, in that order, at most 10 nM and 10 to 100 nM.
For `C=CC(=O)N1CCC(C)(c2ccc(Nc3nc(N[C@@H]4CCCN(C(=O)C=C)C4)nnc3C(N)=O)cc2)CC1` [Example C-45, (R)-5-(4-(1-acryloyl-4-methylpiperidin-4-yl)phenylamino)-3-(1-acryloylpiperidin-3-ylamino)-1,2,4-triazine-6-carboxamide], the IC50 is at most 10 nM on BTK-WT (Table 15, C compounds) and at most 10 nM on ITK (setting [1]).
Turning to `C=CC(=O)N1CCC[C@H](Nc2nnc(C(N)=O)c(Nc3ccc(-c4ncco4)cc3)n2)C1` [Example E-18, (S)-3-(1-acryloylpiperidin-3-ylamino)-5-(4-(oxazol-2-yl)phenylamino)-1,2,4-triazine-6-carboxamide], the half-maximal inhibitory concentration (IC50) at BTK-WT (E compounds, Table 17) is at most 10 nM; against ITK (E compounds, Table 17), 10 to 100 nM.
In the case of `C=CC(=O)N1CCC[C@H](Nc2cnc(C(N)=O)c(Nc3ccc(-c4ncccn4)cc3)n2)C1` [Example E-94, (S)-5-(1-acryloylpiperidin-3-ylamino)-3-(4-(pyrimidin-2-yl)phenylamino)pyrazine-2-carboxamide], the IC50 is at most 10 nM on BTK-WT (E compounds, Table 17) and 100 to 1000 nM at ITK (E compounds, Table 17).
In the case of `C=CC(=O)N1CCC[C@@H](N(C(=O)C=C)c2nnc(C(N)=O)c(Nc3ccc(C4CC4)cc3)n2)C1` [Example C-49, (R)-3-(N-(1-acryloylpiperidin-3-yl)acrylamido)-5-(4-cyclopropylphenyl-amino)-1,2,4-triazine-6-carboxamide], the 50% inhibitory concentration (IC50) at BTK-WT (Table 15, C compounds) was at most 10 nM; against ITK (setting [1]), 1000 to 10000 nM.
Regarding `C=CC(=O)N[C@H]1CCC[C@@H](Nc2nnc(C(N)=O)c(Nc3ccc(C(C)C)cc3)n2)C1` [Example E-59, 3-((1R,3S)-3-acrylamidocyclohexyl-amino)-5-(4-isopropylphenylamino)-1,2,4-triazine-6-carboxamide], the IC50 is at most 10 nM at BTK-WT (E compounds, Table 17) and 100 to 1000 nM at ITK (E compounds, Table 17).
Turning to `C=CC(=O)N1CCC[C@H](Nc2cnc(C(N)=O)c(Nc3ccc(C(C)C)cc3)n2)C1` [Example E-101, (S)-5-(1-acryloylpiperidin-3-ylamino)-3-(4-isopropylphenylamino) pyrazine-2-carboxamide], the IC50 is at most 10 nM at BTK-WT (E compounds, Table 17) and 100 to 1000 nM at ITK (E compounds, Table 17).
In the same order, the values of `C=CC(=O)N1CCC[C@@H](Nc2nnc(C(N)=O)c(Nc3ccc(C4CC4)cc3)n2)C1` [Example E-36, (R)-3-(1-acryloylpiperidin-3-ylamino)-5-(4-cyclopropylphenyl-amino)-1,2,4-triazine-6-carboxamide] are at most 10 nM and 10 to 100 nM.
As for `C=CC(=O)N1CCC[C@@H](Nc2nnc(C(N)=O)c(Nc3ccc(C(C)C)cc3)n2)[C@@H]1C` [Example E-17, 3-((2S,3R)-1-acryloyl-2-methylpiperidin-3-ylamino)-5-(4-isopropylphenylamino)-1,2,4-triazine-6-carboxamide], the IC50 on BTK-WT (E compounds, Table 17) is at most 10 nM; against ITK (E compounds, Table 17), 10 to 100 nM.
Regarding `CN(c1cnc(C(N)=O)c(Nc2ccc(C3(C)CCN(C4CCCC4)CC3)cc2)n1)[C@@H]1CCN(C(=O)C(F)(F)F)C1` [Example C-68, (R)-3-(4-(1-cyclopentyl-4-methylpiperidin-4-yl)phenylamino)-5-(methyl(1-(2,2,2-trifluoroacetyl)pyrrolidin-3-yl)amino)pyrazine-2-carboxamide], the half-maximal inhibitory concentration (IC50) at BTK-WT (Table 15, C compounds) was at most 10 nM; against ITK (setting [1]), at most 10 nM.
As to `C=CC(=O)N1CCCC[C@H](Nc2nnc(C(N)=O)c(Nc3ccc(C(C)C)cc3)n2)C1` [Example C-35, (S)-3-(1-acryloylazepan-3-ylamino)-5-(4-isopropylphenylamino)-1,2,4-triazine-6-carboxamide], the IC50 on BTK-WT (Table 15, C compounds) is at most 10 nM; against ITK (setting [1]), 100 to 1000 nM.
The like results for `C=CC(=O)N1CCC[C@H](Nc2nnc(C(N)=O)c(Nc3ccc(C(C)(C)C)cc3)n2)C1` [Example C-39, (S)-3-(1-acryloylpiperidin-3-ylamino)-5-(4-tert-butylphenylamino)-1,2,4-triazine-6-carboxamide] were, in that order, at most 10 nM and 10 to 100 nM.
In the case of `C=CC(=O)N1CCC[C@@H](Nc2nnc(C(N)=O)c(Nc3cccc(C)c3)n2)C1` [Example E-44, (R)-3-(1-acryloylpiperidin-3-ylamino)-5-(m-tolylamino)-1,2,4-triazine-6-carboxamide], the IC50 is at most 10 nM at BTK-WT (E compounds, Table 17) and 10 to 100 nM against ITK (E compounds, Table 17).
For the compound `C=CC(=O)N[C@H]1CCCN(c2nnc(C(N)=O)c(Nc3ccc(C(C)C)cc3)n2)C1` [Example A-95, (S)-3-(3-acrylamido-piperidin-1-yl)-5-(4-isopropylphenylamino)-1,2,4-triazine-6-carboxamide], the IC50 at BTK-WT (Table 13, A compounds) was in the range of 10 to 100 nM; on ITK (Table 13, A compounds, 1 μM ATP), 100 to 1000 nM.
With `C=CC(=O)N1CCC[C@H](N(C)c2nnc(C(N)=O)c(Nc3ccc(C(C)C)cc3)n2)C1` [Example E-27, (S)-3-((1-acryloylpiperidin-3-yl)(methyl)amino)-5-(4-isopropylphenylamino)-1,2,4-triazine-6-carboxamide], the IC50 was at most 10 nM on BTK-WT (E compounds, Table 17) and 10 to 100 nM on ITK (E compounds, Table 17).
